Broadly, the IC50 is the midpoint of a concentration-inhibition curve.

This test has as its system Aβ42 (human neuroglioma H4 cells expressing human wild type APP751). The test can be described thus: In vitro cell screening assay with sandwich ELISA quantification of Aβ42 peptide. The class given is cell-based. Conditions: H4 cells stably expressing human wild type APP751; Pro293 chemically defined medium; compounds 0.003-10 μM; incubated overnight (16-18 h); supernatant Aβ42 by sandwich ELISA; normalized to DMSO and DAPT; read-out: Aβ42 H4 Prot Fre IC50. Summed up: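 H4 neuroglioma cells stably expressing human wild-type APP751 were treated in Pro293 medium with compounds (0.003-10 μM, 0.33% DMSO) for 16-18 h at 37° C. Secreted Aβ42 measured by sandwich ELISA (C-terminal capture, 4G8-HRP detection, TMB, 450 nm). IC50 by variable-slope sigmoidal regression on percent of DMSO control.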
Background: ELISA stands for enzyme-linked immunosorbent assay.
Regarding `Cc1cn(-c2ccc(Nc3ncc4c(n3)N(C)C(C)CO4)cn2)cn1` (single isomer, unassigned; (+)) [Example 194A], the IC50 worked out at 970 nM.

Turning to `Cc1cc(-c2ccc(Nc3ncc4c(n3)N(C)C(c3cc(F)cc(F)c3)CO4)cc2F)ccn1` (single isomer, unassigned; (+)) [Example 41A], the IC50 was found to be 77 nM. In the case of `Cc1cc(-c2ccc(Nc3ncc4c(n3)N(C)C(c3ccc(F)cc3)CO4)cc2F)ccn1` (single isomer, unassigned; (+)) [Example 56A], the IC50 came out at 71 nM. Take `COc1cc(Nc2ncc3c(n2)N(C)C(C(F)(F)F)CO3)ccc1-n1cnc(Cl)c1` (single isomer, unassigned; (+)) [Example 228A]: the IC50 was found to be 331 nM. In the case of `COc1cc(Nc2ncc3c(n2)N(C)C(c2ccc(F)cc2F)CO3)ccc1-c1ccnc(C)c1` (single isomer, unassigned; (+)) [Example 63B] it was 64 nM. As for `COc1cc(Nc2ncc3c(n2)N(C)C(C)CO3)cnc1-n1cnc(C)c1` (single isomer, unassigned; (-)) [Example 185B], the figure is 540 nM; as for `COc1cc(Nc2ncc3c(n2)N(C)C(c2ccccc2C)CO3)ccc1-n1cnc(C)c1` (racemic) [Example 31], 25 nM.

On to `COc1nc(Nc2ncc3c(n2)N(C)C(c2cc(F)c(F)cc2F)CO3)ccc1-n1cnc(C)c1` (racemic) [Example 191], for which the IC50 was 2250 nM.

On to `COc1cc(Nc2ncc3c(n2)N(C)C(c2ccccc2Cl)CO3)ccc1-n1cnc(C)c1` (racemic) [Example 51], for which the IC50 was determined as 32 nM. As for `COc1cc(Nc2ncc3c(n2)N2CCOC[C@@H]2CO3)ccc1-n1cnc(C)c1` [Example 296], the figure is 759 nM; as for `Cc1cn(-c2ccc(Nc3ncc4c(n3)N(C)C(c3cc(Cl)ccc3C(F)(F)F)CO4)cc2F)cn1` (single isomer, unassigned; (+)) [Example 100A], 101 nM; as for `COc1cc(Nc2ncc3c(n2)N(C)C(c2cc(F)c(F)cc2Cl)CO3)ccc1-n1cnc(C)c1` (single isomer, unassigned; (-)) [Example 103B], 219 nM. Consider `Cc1cn(-c2ccc(Nc3ncc4c(n3)N(C)C3(CC3)CO4)nc2)cn1` [Example 265], for which the IC50 was greater than 3000 nM. For `COc1cc(Nc2ncc3c(n2)N(C)C(c2cc(F)cc(F)c2)CO3)ccc1-n1cnc(Cl)c1` (single isomer, unassigned; (+)) [Example 204B], the IC50 worked out at 19 nM. In the case of `Cc1cn(-c2ccc(Nc3ncc4c(n3)N(C)C(c3cc(F)c(F)c(F)c3)CO4)cc2F)cn1` (single isomer, unassigned; (+)) [Example 118A] it was 29 nM. In the case of `Cc1cn(-c2ccc(Nc3ncc4c(n3)N(C)C(c3ccccc3)CO4)cc2F)cn1` (single isomer, unassigned; (+)) [Example 25A] it was 14 nM; in that of `Cc1cc(-c2ccc(Nc3ncc4c(n3)N(C)C(c3cc(F)c(F)c(F)c3)CO4)cc2)ccn1` (racemic) [Example 37], 103 nM; in that of `COc1ccc(Cl)c(C2COc3cnc(Nc4cnc(-n5cnc(C)c5)c(OC)c4)nc3N2C)c1` (single isomer, unassigned; (+)) [Example 208A], 20 nM. For the compound `COc1cc(Nc2ncc3c(n2)N(C)C(C(F)(F)F)CO3)ccc1-n1cnc(C)c1` (single isomer, unassigned; (-)) [Example 187B], the IC50 stood at 33 nM. Take `COc1cc(Nc2ncc3c(n2)N(C)C(C2CCS(=O)(=O)CC2)CO3)ccc1-n1cnc(C)c1` (single isomer, unassigned; (+)) [Example 239B, (+)-4-(2-((3-methoxy-4-(4-methyl-1H-imidazol-1-yl)phenyl)amino)-8-methyl-7,8-dihydro-6H-pyrimido [5,4-b] [1, 4]oxazin-7-yl) tetrahydro-2H-thiopyran 1,1-dioxide]: the IC50 is 380 nM. With `COc1cc(Nc2ncc3c(n2)N(C)C(c2ccc(C(F)(F)F)cc2C(F)(F)F)CO3)ccc1-n1cnc(C)c1` (racemic) [Example 91], the IC50 came out at 110 nM. `COC[C@@H]1COc2cnc(Nc3ccc(-n4cnc(C)c4)c(OC)c3)nc2N1C` [Example 176]: the IC50 was determined as 369 nM.

For `COc1cc(Nc2ncc3c(n2)N2C(=O)CCC2CO3)cnc1-n1cnc(C)c1` (single isomer, unassigned; (+)) [Example 302A, (+)-2-((5-methoxy-6-(4-methyl-1H-imidazol-1-yl)pyridin-3-yl)amino)-6,6a, 7,8-tetrahydro-9H-pyrimido [5,4-b] pyrrolo [1,2-d] [1, 4] oxazin-9-one], the IC50 was greater than 3000 nM. For the compound `COc1cc(Nc2ncc3c(n2)N(C)C(c2cc(F)c(F)c(F)c2)CO3)ccc1-n1cnc(C)c1` (racemic) [Example 40], the IC50 stood at 20 nM. Regarding `COc1cc(Nc2ncc3c(n2)N(C)C(c2cc(C(F)(F)F)ccc2Cl)CO3)ccc1-n1cnc(C)c1` (single isomer, unassigned; (-)) [Example 88B], the IC50 is 286 nM. In the case of `Cc1cn(-c2ccc(Nc3ncc4c(n3)N(C)C(c3ccc(F)cc3)CO4)cc2F)cn1` (single isomer, unassigned; (+)) [Example 58A] it was 28 nM; in that of `COc1cc(Nc2ncc3c(n2)N(C)C(c2ccccc2C)CO3)cnc1-n1cnc(C)c1` (single isomer, unassigned; (-)) [Example 171B], 67 nM; in that of `Cc1cn(-c2ccc(Nc3ncc4c(n3)N(C)C3(CCCC3)CO4)cc2F)cn1` [Example 279], 254 nM.

For the compound `COc1cc(Nc2ncc3c(n2)N(C)C(C2COC2)CO3)ccc1-n1cnc(C)c1` (single isomer, unassigned; (-)) [Example 241A], the IC50 worked out at 390 nM. Regarding `COc1cc(Nc2ncc3c(n2)N(C)C(c2ccccc2C)CO3)ccc1-c1ccnc(C)c1` (single isomer, unassigned; (+)) [Example 35B], the IC50 was determined as 35 nM. As for `Cc1cc(-c2ccc(Nc3ncc4c(n3)N(C)C(c3cc(F)cc(F)c3)CO4)cc2)ccn1` (single isomer, unassigned; (-)) [Example 28A], the figure is 1960 nM; as for `COc1cc(Nc2ncc3c(n2)N(C)C(c2ccc(F)cc2C)CO3)ccc1-n1cnc(C)c1` (single isomer, unassigned; (-)) [Example 117A], 140 nM. As for `COc1cc(Nc2ncc3c(n2)N(C)C2(COC2)CO3)ccc1-n1cnc(C)c1` [Example 271], the figure is 364 nM. As for `Cc1cn(-c2ccc(Nc3ncc4c(n3)N(C)C(C(F)(F)F)CO4)cc2C#N)cn1` (single isomer, unassigned; (+)) [Example 232A, (+)-2-(4-methyl-1H-imidazol-1-yl)-5-((8-methyl-7-(trifluoromethyl)-7,8-dihydro-6H-pyrimido [5,4-b] [1, 4]oxazin-2-yl)amino) benzonitrile], the figure is 280 nM; as for `COc1cc(Nc2ncc3c(n2)N(C)C(c2ccccc2C)CO3)ccc1-c1ccnc(C)c1` (single isomer, unassigned; (-)) [Example 35A], 355 nM; as for `COc1cc(Nc2ncc3c(n2)N(C)C(c2cc(F)c(F)c(F)c2)CO3)ccc1-c1ccnc(C)c1` (racemic) [Example 39], 35 nM. For `COc1cc(Nc2ncc3c(n2)N(C)C(c2cc(F)cc(F)c2)CO3)ccc1-c1ccnc(C)c1` (single isomer, unassigned; (+)) [Example 42A], the half-maximal inhibitory concentration (IC50) came out at 36 nM. Take `Cc1cn(-c2ccc(Nc3ncc4c(n3)N(C)C3(CCCC3)CO4)nc2)cn1` [Example 263]: the half-inhibitory concentration (IC50) was greater than 3000 nM. Turning to `Cc1cn(-c2ccc(Nc3ncc4c(n3)N(C)C(c3cc(F)ccc3C(F)(F)F)CO4)cc2F)cn1` (single isomer, unassigned; (-)) [Example 104A], the IC50 was 526 nM. As for `COc1cc(Nc2ncc3c(n2)N(C)C(C2CCOCC2)CO3)ccc1-n1cnc(C)c1` (racemic) [Example 50], the figure is 173 nM.

Take `Cc1cc(-c2ccc(Nc3ncc4c(n3)N(C)C(c3cc(F)cc(F)c3)CO4)cc2F)ccn1` (racemic) [Example 41]: the IC50 is 63 nM. For `COc1cc(Nc2ncc3c(n2)N(C)[C@@H](CC2CC2)CO3)ccc1-n1cnc(C)c1` [Example 217], the IC50 is 53 nM. As for `COc1cc(Nc2ncc3c(n2)N(C)C(C(F)(F)F)CO3)ncc1-n1cnc(C)c1` (single isomer, unassigned; (-)) [Example 236B], the figure is 245 nM; as for `Cc1cn(-c2ccc(Nc3ncc4c(n3)N(C)C(c3cc(C(F)(F)F)ccc3Cl)CO4)cc2F)cn1` (single isomer, unassigned; (+)) [Example 173A], 72 nM. In the case of `COc1cc(Nc2ncc3c(n2)N(C)C(c2ccccc2C(F)(F)F)CO3)ccc1-n1cnc(C)c1` (racemic) [Example 55] it was 37 nM. As for `COc1nc(Nc2ncc3c(n2)N(C)C(c2cc(F)cc(F)c2)CO3)ccc1-n1cnc(C)c1` (single isomer, unassigned; (+)) [Example 179B], the figure is 287 nM. `COc1cc(Nc2ncc3c(n2)N(C)C(c2ccccc2C)CO3)cnc1-n1cnc(C)c1` (single isomer, unassigned; (+)) [Example 171A]: the IC50 came out at 11 nM. In the case of `COc1cc(Nc2ncc3c(n2)N(C)C(c2ccc(F)cc2C)CO3)ccc1-n1cnc(C)c1` (single isomer, unassigned; (+)) [Example 117B] it was 22 nM; in that of `Cc1cn(-c2ccc(Nc3ncc4c(n3)N(C)C(c3ccc(Cl)cc3C(F)(F)F)CO4)cc2F)cn1` (single isomer, unassigned; (+)) [Example 106A], 154 nM; in that of `Cc1cn(-c2ccc(Nc3ncc4c(n3)N(C)C(c3ccccc3Cl)CO4)cc2F)cn1` (single isomer, unassigned; (-)) [Example 67B], 643 nM.

The record behind these values is patent US9771378B2 (Denali Therapeutics, Inc., priority 2014, dated 2017).
